Experiments:
Assay in all cases: radiometric filter-binding kinase assay, Kinase HotSpot
Conditions in all cases: compound 0.5 µM; ATP 10 µM
NTRK3 (human) = NTRK3 (human) (UniProt Q16288)
MAPKAPK2 (human) = MAPKAPK2 (human) (UniProt P49137)
STK10 (human) = STK10 (human) (UniProt O94804)
FGR (human) = FGR (human) (UniProt P09769)
FGFR4 (human) = FGFR4 (human) (UniProt P22455)
IRAK4 (human) = IRAK4 (human) (UniProt Q9NWZ3)
MAP3K8 (human) = MAP3K8 (human) (UniProt P41279)
CDK5 CDK5R1 p35 (human) = CDK5 CDK5R1 p35 (human) (UniProt Q00535+Q15078)
TAOK3 (human) = TAOK3 (human) (UniProt Q9H2K8)
TNK2 (human) = TNK2 (human) (UniProt Q07912)
PLK3 (human) = PLK3 (human) (UniProt Q9H4B4)
FLT1 (human) = FLT1 (human) (UniProt P17948)
RPS6KB1 (human) = RPS6KB1 (human) (UniProt P23443)
MAP4K5 (human) = MAP4K5 (human) (UniProt Q9Y4K4)
CAMK1D (human) = CAMK1D (human) (UniProt Q8IU85)
MAP3K2 (human) = MAP3K2 (human) (UniProt Q9Y2U5)
TEK (human) = TEK (human) (UniProt Q02763)
SGK2 (human) = SGK2 (human) (UniProt Q9HBY8)
HIPK1 (human) = HIPK1 (human) (UniProt Q86Z02)
VRK1 (human) = VRK1 (human) (UniProt Q99986)
Chain of VRK1 (human) (Q99986 whole entry, looked up): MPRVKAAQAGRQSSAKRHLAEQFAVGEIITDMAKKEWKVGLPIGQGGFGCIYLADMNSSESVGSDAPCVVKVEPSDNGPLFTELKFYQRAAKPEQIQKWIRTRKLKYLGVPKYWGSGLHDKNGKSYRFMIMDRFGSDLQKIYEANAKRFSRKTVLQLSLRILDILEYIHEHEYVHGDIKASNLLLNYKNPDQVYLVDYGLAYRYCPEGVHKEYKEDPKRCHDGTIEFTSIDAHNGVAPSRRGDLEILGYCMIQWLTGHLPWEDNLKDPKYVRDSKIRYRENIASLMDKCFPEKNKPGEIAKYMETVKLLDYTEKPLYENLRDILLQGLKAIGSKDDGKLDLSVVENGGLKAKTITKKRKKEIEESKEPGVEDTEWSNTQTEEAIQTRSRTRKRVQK

CDK9 CCNK (human) = CDK9 CCNK (human) (UniProt O75909+P50750)
CLK1 (human) = CLK1 (human) (UniProt P49759)
PNCK (human) = PNCK (human) (UniProt Q6P2M8)
MAP3K3 (human) = MAP3K3 (human) (UniProt Q99759)
RAF1 (human) = RAF1 (human) (UniProt P04049)
Chain of RAF1 (human) (P04049 whole entry, looked up): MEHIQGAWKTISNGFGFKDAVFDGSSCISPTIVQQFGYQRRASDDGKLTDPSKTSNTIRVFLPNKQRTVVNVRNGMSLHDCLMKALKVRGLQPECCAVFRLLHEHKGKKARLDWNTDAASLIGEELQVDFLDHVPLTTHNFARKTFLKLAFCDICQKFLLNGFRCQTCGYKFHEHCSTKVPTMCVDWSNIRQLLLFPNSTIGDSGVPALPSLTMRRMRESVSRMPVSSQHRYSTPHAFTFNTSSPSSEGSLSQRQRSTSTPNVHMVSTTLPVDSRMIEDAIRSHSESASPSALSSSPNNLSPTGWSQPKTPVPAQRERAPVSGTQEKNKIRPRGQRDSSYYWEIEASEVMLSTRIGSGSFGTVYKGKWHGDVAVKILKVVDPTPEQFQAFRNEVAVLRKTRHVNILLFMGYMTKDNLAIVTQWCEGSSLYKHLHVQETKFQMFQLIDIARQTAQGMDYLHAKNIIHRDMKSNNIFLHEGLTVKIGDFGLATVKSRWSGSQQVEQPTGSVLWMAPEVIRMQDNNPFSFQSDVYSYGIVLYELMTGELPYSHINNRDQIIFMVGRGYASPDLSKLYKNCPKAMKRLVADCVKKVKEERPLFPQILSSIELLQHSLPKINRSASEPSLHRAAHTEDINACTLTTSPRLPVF

SLK (human) = SLK (human) (UniProt Q9H2G2)
SGK3 (human) = SGK3 (human) (UniProt Q96BR1)
Chain of SGK3 (human) (Q96BR1 whole entry, looked up): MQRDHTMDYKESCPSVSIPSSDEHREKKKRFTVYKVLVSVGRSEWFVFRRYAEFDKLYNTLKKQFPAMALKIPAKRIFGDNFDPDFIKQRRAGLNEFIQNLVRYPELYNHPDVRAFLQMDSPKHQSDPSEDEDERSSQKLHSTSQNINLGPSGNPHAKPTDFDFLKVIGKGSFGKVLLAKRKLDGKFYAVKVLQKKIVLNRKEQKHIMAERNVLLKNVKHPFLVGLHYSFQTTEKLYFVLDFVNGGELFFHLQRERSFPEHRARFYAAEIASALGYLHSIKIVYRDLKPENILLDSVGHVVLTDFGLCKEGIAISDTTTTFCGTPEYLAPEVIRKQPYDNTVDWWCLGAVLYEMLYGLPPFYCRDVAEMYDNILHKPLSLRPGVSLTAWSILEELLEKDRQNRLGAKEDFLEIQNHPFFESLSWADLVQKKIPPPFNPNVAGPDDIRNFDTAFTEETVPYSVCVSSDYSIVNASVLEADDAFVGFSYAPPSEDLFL

STK4 (human) = STK4 (human) (UniProt Q13043)
Chain of STK4 (human) (Q13043 whole entry, looked up): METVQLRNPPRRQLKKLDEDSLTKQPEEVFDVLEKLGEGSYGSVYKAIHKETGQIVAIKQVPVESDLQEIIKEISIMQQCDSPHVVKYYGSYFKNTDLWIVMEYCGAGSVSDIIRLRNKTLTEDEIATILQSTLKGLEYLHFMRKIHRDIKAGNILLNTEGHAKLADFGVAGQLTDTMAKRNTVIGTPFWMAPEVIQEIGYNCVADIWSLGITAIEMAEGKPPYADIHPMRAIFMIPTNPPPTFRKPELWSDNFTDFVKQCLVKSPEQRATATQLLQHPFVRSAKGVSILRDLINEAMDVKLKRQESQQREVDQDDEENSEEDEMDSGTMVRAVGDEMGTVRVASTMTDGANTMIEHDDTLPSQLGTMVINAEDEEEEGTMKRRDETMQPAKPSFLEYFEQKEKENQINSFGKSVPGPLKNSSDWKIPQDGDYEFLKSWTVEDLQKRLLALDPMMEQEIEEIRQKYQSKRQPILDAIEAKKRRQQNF

PAK2 (human) = PAK2 (human) (UniProt Q13177)
Chain of PAK2 (human) (Q13177 whole entry, looked up): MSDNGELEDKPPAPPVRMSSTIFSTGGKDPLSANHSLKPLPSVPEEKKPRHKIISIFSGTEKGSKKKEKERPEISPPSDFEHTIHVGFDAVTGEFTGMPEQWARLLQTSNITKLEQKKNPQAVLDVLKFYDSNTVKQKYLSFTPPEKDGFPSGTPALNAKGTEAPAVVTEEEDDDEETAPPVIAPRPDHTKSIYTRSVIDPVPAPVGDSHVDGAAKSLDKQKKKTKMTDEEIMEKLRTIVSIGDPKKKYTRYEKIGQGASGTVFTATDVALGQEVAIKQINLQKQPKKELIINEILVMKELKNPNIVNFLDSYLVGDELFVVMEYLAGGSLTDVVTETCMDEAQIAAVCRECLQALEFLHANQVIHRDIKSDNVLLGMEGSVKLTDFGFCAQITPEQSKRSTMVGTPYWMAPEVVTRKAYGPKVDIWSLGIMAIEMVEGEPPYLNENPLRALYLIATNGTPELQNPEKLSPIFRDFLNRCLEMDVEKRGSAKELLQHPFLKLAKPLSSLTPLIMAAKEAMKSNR

SYK (human) = SYK (human) (UniProt P43405)
HIPK3 (human) = HIPK3 (human) (UniProt Q9H422)
CSNK1E (human) = CSNK1E (human) (UniProt P49674)
MAP3K11 (human) = MAP3K11 (human) (UniProt Q16584)
WEE1 (human) = WEE1 (human) (UniProt P30291)
CDK9 CCNT1 (human) = CDK9 CCNT1 (human) (UniProt P50750+O60563)
PRKCH (human) = PRKCH (human) (UniProt P24723)
HIPK4 (human) = HIPK4 (human) (UniProt Q8NE63)
Chain of HIPK4 (human) (Q8NE63 whole entry, looked up): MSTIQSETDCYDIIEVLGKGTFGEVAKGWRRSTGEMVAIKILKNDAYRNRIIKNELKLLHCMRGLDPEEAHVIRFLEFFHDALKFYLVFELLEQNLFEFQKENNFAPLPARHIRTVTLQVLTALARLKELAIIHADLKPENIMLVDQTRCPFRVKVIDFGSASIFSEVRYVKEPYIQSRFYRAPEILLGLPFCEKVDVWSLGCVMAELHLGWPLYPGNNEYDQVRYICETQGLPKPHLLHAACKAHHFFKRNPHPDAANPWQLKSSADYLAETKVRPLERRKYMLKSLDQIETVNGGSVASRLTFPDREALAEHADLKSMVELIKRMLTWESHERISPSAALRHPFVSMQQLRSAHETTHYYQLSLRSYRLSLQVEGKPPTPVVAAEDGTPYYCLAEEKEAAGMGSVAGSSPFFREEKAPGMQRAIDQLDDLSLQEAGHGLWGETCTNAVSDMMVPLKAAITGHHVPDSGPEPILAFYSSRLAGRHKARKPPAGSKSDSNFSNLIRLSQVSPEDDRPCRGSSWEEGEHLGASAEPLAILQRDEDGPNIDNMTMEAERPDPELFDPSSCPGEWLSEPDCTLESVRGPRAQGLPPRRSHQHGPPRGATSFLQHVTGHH

AURKA (human) = AURKA (human) (UniProt O14965)
Chain of AURKA (human) (O14965 whole entry, looked up): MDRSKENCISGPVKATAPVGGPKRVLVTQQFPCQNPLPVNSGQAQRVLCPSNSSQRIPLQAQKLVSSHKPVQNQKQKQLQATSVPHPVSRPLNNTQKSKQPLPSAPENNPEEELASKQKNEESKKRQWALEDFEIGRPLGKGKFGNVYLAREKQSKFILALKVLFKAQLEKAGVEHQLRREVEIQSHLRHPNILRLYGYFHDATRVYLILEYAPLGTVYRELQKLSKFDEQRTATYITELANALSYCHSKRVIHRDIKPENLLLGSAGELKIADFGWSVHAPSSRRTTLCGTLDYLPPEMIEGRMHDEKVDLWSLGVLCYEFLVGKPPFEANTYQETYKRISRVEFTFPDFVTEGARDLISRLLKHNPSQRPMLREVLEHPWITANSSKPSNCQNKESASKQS

NTRK1 (human) = NTRK1 (human) (UniProt P04629)
GRK7 (human) = GRK7 (human) (UniProt Q8WTQ7)
AURKC (human) = AURKC (human) (UniProt Q9UQB9)
NEK1 (human) = NEK1 (human) (UniProt Q96PY6)

Chain of IRAK4 (human) (Q9NWZ3 whole entry, looked up): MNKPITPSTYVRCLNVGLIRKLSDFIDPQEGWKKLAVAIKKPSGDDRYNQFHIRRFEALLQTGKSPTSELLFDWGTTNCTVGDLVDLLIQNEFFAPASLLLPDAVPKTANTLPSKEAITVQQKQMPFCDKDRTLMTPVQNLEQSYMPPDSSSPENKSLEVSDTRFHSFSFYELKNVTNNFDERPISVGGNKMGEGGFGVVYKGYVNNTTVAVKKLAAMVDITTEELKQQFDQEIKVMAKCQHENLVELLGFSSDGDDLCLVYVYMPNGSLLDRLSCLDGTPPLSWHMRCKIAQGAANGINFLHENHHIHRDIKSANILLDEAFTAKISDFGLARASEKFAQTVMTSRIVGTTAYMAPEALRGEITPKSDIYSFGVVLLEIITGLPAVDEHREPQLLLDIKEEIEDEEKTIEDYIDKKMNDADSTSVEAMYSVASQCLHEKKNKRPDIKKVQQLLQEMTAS
Chain of STK10 (human) (O94804 whole entry, looked up): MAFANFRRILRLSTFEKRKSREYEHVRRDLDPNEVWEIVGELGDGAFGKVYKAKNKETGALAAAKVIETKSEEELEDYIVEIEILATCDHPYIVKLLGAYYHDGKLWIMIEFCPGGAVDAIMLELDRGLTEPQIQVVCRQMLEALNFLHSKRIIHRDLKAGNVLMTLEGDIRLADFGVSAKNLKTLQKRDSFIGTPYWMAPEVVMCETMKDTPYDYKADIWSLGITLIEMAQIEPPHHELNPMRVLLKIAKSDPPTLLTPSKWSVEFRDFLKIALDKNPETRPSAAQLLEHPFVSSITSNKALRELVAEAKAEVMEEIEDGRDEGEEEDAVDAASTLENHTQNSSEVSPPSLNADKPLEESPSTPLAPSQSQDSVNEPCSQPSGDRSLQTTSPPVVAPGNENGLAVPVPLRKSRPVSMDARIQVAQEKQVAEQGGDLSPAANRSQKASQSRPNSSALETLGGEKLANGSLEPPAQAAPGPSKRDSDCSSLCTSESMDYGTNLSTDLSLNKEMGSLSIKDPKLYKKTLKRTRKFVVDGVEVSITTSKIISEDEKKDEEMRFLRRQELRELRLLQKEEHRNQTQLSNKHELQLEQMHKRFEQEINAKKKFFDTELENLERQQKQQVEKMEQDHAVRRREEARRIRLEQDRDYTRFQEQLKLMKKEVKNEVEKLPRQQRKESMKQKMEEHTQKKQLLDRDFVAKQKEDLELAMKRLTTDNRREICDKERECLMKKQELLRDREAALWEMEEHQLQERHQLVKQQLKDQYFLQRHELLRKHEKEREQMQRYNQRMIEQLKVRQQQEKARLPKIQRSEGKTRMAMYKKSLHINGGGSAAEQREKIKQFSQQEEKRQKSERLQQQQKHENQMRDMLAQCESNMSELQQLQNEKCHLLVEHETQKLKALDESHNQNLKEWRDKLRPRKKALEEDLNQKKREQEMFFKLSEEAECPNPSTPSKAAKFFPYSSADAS

Structure (SMILES): COc1ccc(-c2cnc3c(-c4ccsc4)cnn3c2)cc1
- residual activity (NTRK3 (human)): 49.8%
- residual activity (MAPKAPK2 (human)): 95.8%
- residual activity (STK10 (human)): 81.6%
- residual activity (FGR (human)): 72.3%
- residual activity (FGFR4 (human)): 89.2%
- residual activity (IRAK4 (human)): 82.1%
- residual activity (MAP3K8 (human)): 105%
- residual activity (CDK5 CDK5R1 p35 (human)): 64.5%
- residual activity (TAOK3 (human)): 96.9%
- residual activity (TNK2 (human)): 92.2%
- residual activity (PLK3 (human)): 98%
- residual activity (FLT1 (human)): 75.7%
- residual activity (RPS6KB1 (human)): 92.1%
- residual activity (MAP4K5 (human)): 60.3%
- residual activity (CAMK1D (human)): 93.5%
- residual activity (MAP3K2 (human)): 98.7%
- residual activity (TEK (human)): 99.1%
- residual activity (SGK2 (human)): 96.7%
- residual activity (HIPK1 (human)): 99.8%
- residual activity (VRK1 (human)): 105%
- residual activity (CDK9 CCNK (human)): 76.9%
- residual activity (CLK1 (human)): 82.8%
- residual activity (PNCK (human)): 90.9%
- residual activity (MAP3K3 (human)): 99.4%
- residual activity (RAF1 (human)): 95.5%
- residual activity (SLK (human)): 86.3%
- residual activity (SGK3 (human)): 99.6%
- residual activity (STK4 (human)): 97.3%
- residual activity (PAK2 (human)): 79.1%
- residual activity (SYK (human)): 101%
- residual activity (HIPK3 (human)): 103%
- residual activity (CSNK1E (human)): 86.3%
- residual activity (MAP3K11 (human)): 51.9%
- residual activity (WEE1 (human)): 102%
- residual activity (CDK9 CCNT1 (human)): 73.8%
- residual activity (PRKCH (human)): 111%
- residual activity (HIPK4 (human)): 108%
- residual activity (AURKA (human)): 68%
- residual activity (NTRK1 (human)): 93.2%
- residual activity (GRK7 (human)): 99.9%
- residual activity (AURKC (human)): 75.3%
- residual activity (NEK1 (human)): 89.4%

Structure (SMILES): CSc1nc(-c2ccc(F)cc2)c(-c2ccnc(NC(C)c3ccccc3)c2)[nH]1 (centres undefined)
- residual activity (NTRK3 (human)): 93.6%
- residual activity (MAPKAPK2 (human)): 106%
- residual activity (STK10 (human)): 86.8%
- residual activity (FGR (human)): 88.1%
- residual activity (FGFR4 (human)): 102%
- residual activity (IRAK4 (human)): 82.6%
- residual activity (MAP3K8 (human)): 88.6%
- residual activity (CDK5 CDK5R1 p35 (human)): 101%
- residual activity (TAOK3 (human)): 91.7%
- residual activity (TNK2 (human)): 78.4%
- residual activity (PLK3 (human)): 99.7%
- residual activity (FLT1 (human)): 71.5%
- residual activity (RPS6KB1 (human)): 91.2%
- residual activity (MAP4K5 (human)): 85.6%
- residual activity (CAMK1D (human)): 91.7%
- residual activity (MAP3K2 (human)): 101%
- residual activity (TEK (human)): 90.5%
- residual activity (SGK2 (human)): 96.1%
- residual activity (HIPK1 (human)): 110%
- residual activity (VRK1 (human)): 94.1%
- residual activity (CDK9 CCNK (human)): 91.1%
- residual activity (CLK1 (human)): 96.8%
- residual activity (PNCK (human)): 92.9%
- residual activity (MAP3K3 (human)): 80%
- residual activity (RAF1 (human)): 88.9%
- residual activity (SLK (human)): 104%
- residual activity (SGK3 (human)): 103%
- residual activity (STK4 (human)): 89.8%
- residual activity (PAK2 (human)): 104%
- residual activity (SYK (human)): 96.8%
- residual activity (HIPK3 (human)): 101%
- residual activity (CSNK1E (human)): 72%
- residual activity (MAP3K11 (human)): 101%
- residual activity (WEE1 (human)): 76.1%
- residual activity (CDK9 CCNT1 (human)): 99.1%
- residual activity (PRKCH (human)): 94.5%
- residual activity (HIPK4 (human)): 95.2%
- residual activity (AURKA (human)): 99.9%
- residual activity (NTRK1 (human)): 91.2%
- residual activity (GRK7 (human)): 100%
- residual activity (AURKC (human)): 100%
- residual activity (NEK1 (human)): 86.3%

— the kinase profiling compilation of Christmann-Franck et al. (2016)
